According to US20170349860A1, “ENZYME STABILIZERS” (Henkel AG & Co. KGaA, priority 2014, published 2017):

Test system: protease
Experiment: Storage stability of protease in detergent formulation: residual proteolytic activity by AAPF-pNA assay
Type: biochemical
Conditions: 1% protease, 1% (w/w) candidate compound in detergent formulation; stored 8 weeks at 30° C.; AAPF-pNA substrate, 25° C., pH 8.6, 410 nm
Method: The storage stability of protease-containing detergents and cleaning agents was tested for use as enzyme stabilizers in the presence of candidate compounds. For this purpose, the candidate compounds were formulated in the presence of up to 1% (w/w) 1,2-propanediol in a detergent or cleaning agent formulation (see Table 2). The protease (1% PUR) was then added to the formulation, and the formulation stored for 8 weeks at 30° C.
In parallel batches, the proteolytic activity of 1% protease was determined in 4% PG (1,2-propanediol), 85% matrix (see Table 1), then, each following incubation with 1% of the candidate compound (specified in w/w; QS 100% with water) determined in half of the batches in the formulation as indicated in Table 1 by the release of the chromophore para-nitroaniline from the succinyl-alanine-alanine-proline-phenylalanine para-nitroanilide substrate (AAPF-pNA; Bachem L-1400). The release of the pNA caused an increase in the absorbance at 410 nm, the progress over time of which is a measure of enzymatic activity. […]
For evaluation, the initial values for the proteolytic activity of the agent in question were compared to the values determined after storage. […] The stabilizing effect of each tested compound is thus measured as a relative percentage increase in the residual protease activity.

O=C(O)CCCCCNc1nc(NCCCCCC(=O)O)nc(NCCCCCC(=O)O)n1 [2,4,6-Tri-(6-aminocaproic acid)-1,3,5-triazine]
Relative residual activity after incubation with KV: 136%
